Experimental data taken from patent publication US8895568B2, “Compositions comprising substituted pteridines as agrochemicals” (Dow AgroSciences LLC, priority 2009, dated 2014).
Where two headings read alike, the source gives them in different places.

Legend:
Format in all cases: in vivo
Colletotricum lagenarium = experiment: Cucumber Anthracnose (COLLLA), foliar spray, percent disease control; conditions: foliar
[1] = test system: Pseudoperonospora cubensis; experiment: Cucumber Downy Mildew (PSPECU), foliar spray, percent disease control; conditions: foliar, read-out: PSPECU percent control
Cochliobolus sativus = experiment: Spot Blotch of Wheat (COCHSA), foliar spray, percent disease control
[2] = test system: DROSME, AEDSAE, LAPHEG, or HELIVI; experiment: Insecticidal activity, active if any of DROSME, AEDSAE, LAPHEG or HELIVI was controlled at 80% or more; conditions: read-out: >80% mortality on any insect species @ 4000 ppm
[3] = Bipolaris sorokiniana, foliar; read-out: COCHSA percent control
[4] = Bipolaris sorokiniana, foliar, read-out: COCHSA percent control

Row | SMILES | pest or weed control at 200 µg/mL (Colletotricum lagenarium) | pest or weed control at 200 µg/mL [1] | pest or weed control at 200 µg/mL (Cochliobolus sativus; [3]) | pest or weed control at 4000 ppm [2] | pest or weed control at 200 µg/mL (Cochliobolus sativus; [4])
1 | FC(F)(F)COc1ccnc(Oc2ccc(CCNc3ncnc4nccnc34)cc2)c1 [Compound 96, Pteridin-4-yl-(2-{4-[4-(2,2,2-trifluoroethoxy)-pyridin-2-yloxy]-phenyl}-ethyl)-amine] | 0 to 49% | 80 to 100% | 0 to 49% | > 80% | 
2 | COc1cc(CCNc2ncnc3nccnc23)ccc1Oc1nccc(C(F)(F)F)n1 [Compound 97] | 0 to 49% | 80 to 100% | 0 to 49% | > 80% | 
3 | FC(F)c1ccnc(Oc2ccc(CCNc3ncnc4nccnc34)cc2)c1 [Compound 101] | 80 to 100% | 80 to 100% | 0 to 49% | > 80% | 
4 | Fc1cc(Oc2cc(C(F)(F)F)ccn2)ccc1CCNc1ncnc2nccnc12 [Compound 103] | 0 to 49% | 80 to 100% | 0 to 49% | > 80% | 
5 | N#Cc1ccc(Oc2ccc(CCNc3ncnc4nccnc34)c(F)c2)nc1 [Compound 104] | 0 to 49% | 80 to 100% | 0 to 49% | > 80% | 
6 | Fc1cnc(Oc2ccc(CCNc3ncnc4nccnc34)cc2)c(F)c1C(F)(F)F [Compound 106] | 0 to 49% | 80 to 100% | 0 to 49% | > 80% | 
7 | Fc1cnc(Oc2ccc(CCNc3ncnc4nccnc34)cc2)c(F)c1 [Compound 107] | 0 to 49% | 80 to 100% | 0 to 49% | > 80% | 
8 | Fc1cc(Oc2ccc(CCNc3ncnc4nccnc34)cc2)c(F)cn1 [Compound 108] | 0 to 49% | 80 to 100% | 0 to 49% | > 80% | 
9 | Cc1cc(CCNc2ncnc3nccnc23)ccc1Oc1cc(C(F)(F)F)ccn1 [Compound 109] | 50 to 79% | 80 to 100% | 0 to 49% | > 80% | 
10 | Brc1ccc(Oc2ccc(CCNc3ncnc4nccnc34)cc2)cn1 [Compound 110] | 0 to 49% | 80 to 100% | 0 to 49% | > 80% | 
11 | FC(F)(F)c1ccncc1Oc1ccc(CCNc2ncnc3nccnc23)cc1 [Compound 111] | 50 to 79% | 80 to 100% | 0 to 49% | > 80% | 
12 | Fc1c(F)c(C(F)(F)F)c(F)c(F)c1Oc1ccc(CCNc2ncnc3nccnc23)cc1 [Compound 112] | 0 to 49% | 80 to 100% | 0 to 49% | > 80% | 
13 | Fc1cc(C(F)(F)F)ccc1Oc1ccc(CCNc2ncnc3nccnc23)cc1 [Compound 113] | 0 to 49% | 80 to 100% | 0 to 49% | > 80% | 
14 | Fc1cc(Oc2ncc(C(F)(F)F)cc2F)ccc1CCNc1ncnc2nccnc12 [Compound 114] | 0 to 49% | 80 to 100% | 0 to 49% | > 80% | 
15 | Fc1cc(C(F)(F)F)cnc1Oc1ccc(CCNc2ncnc3ncc(Cl)nc23)cc1 [Compound 118] | 0 to 49% | 0 to 49% | 0 to 49% | > 80% | 
16 | Cc1cnc2ncnc(NCCc3ccc(Oc4cncc(Cl)c4C#N)cc3)c2n1 [Compound 120] | 0 to 49% | 0 to 49% | 0 to 49% | > 80% | 
17 | FC(F)(F)c1cccc(-c2ccc(CCNc3ncnc4nccnc34)cc2)c1 [Compound 122] | 0 to 49% | 50 to 79% |  | > 80% | 0 to 49%
18 | c1ccc(-c2ccc(CCNc3ncnc4nccnc34)cc2)cc1 [Compound 125] | 50 to 79% | 80 to 100% |  | > 80% | 0 to 49%
19 | FC(F)(F)c1ccc(Oc2ccc(CCNc3ncnc4nccnc34)cn2)cc1 [Compound 126] | 80 to 100% | 80 to 100% | 0 to 49% | > 80% | 
20 | FC(F)(F)c1nc(Oc2ccc(CCNc3ncnc4nccnc34)cc2)sc1Cl [Compound 128] | 0 to 49% | 80 to 100% | 0 to 49% | > 80% | 
21 | Cc1cc(Oc2cc(C(F)(F)F)ccn2)ccc1CCNc1ncnc2nccnc12 [Compound 129] | 50 to 79% | 80 to 100% | 50 to 79% | > 80% | 
22 | COc1cc(CCNc2ncnc3nccnc23)ccc1Oc1ncc(C(F)(F)F)cc1F [Compound 130] | 0 to 49% | 80 to 100% | 0 to 49% | > 80% | 
23 | COc1ccc(CCNc2ncnc3nc(C)c(C)nc23)cc1 [Compound 131] | 0 to 49% | 80 to 100% | 0 to 49% | > 80% | 
24 | CC(C)c1ccc(Oc2ccc(CCNc3ncnc4nccnc34)cc2)cc1 [Compound 132, {2-[4-(4-Isopropylphenoxy)-phenyl]-ethyl}-pteridin-4-yl-amine] | 0 to 49% | 80 to 100% | 0 to 49% | > 80% | 
25 | Cc1ccc(Oc2ccc(CCNc3ncnc4nccnc34)cc2)cc1 [Compound 136] | 50 to 79% | 80 to 100% | 0 to 49% | > 80% | 
26 | CCOC(=O)c1ccc(Oc2ccc(CCNc3ncnc4nccnc34)cc2)nc1 [Compound 137] | 0 to 49% | 0 to 49% | 0 to 49% | > 80% | 
27 | Fc1nc(Oc2ccc(CCNc3ncnc4nccnc34)cc2)c(F)c(C(F)(F)F)c1F [Compound 138, Pteridin-4-yl-{2-[4-(3,5,6-trifluoro-4-trifluoromethyl-pyridin-2-yloxy)-phenyl]-ethyl}-amine] | 80 to 100% | 80 to 100% | 0 to 49% | > 80% | 
28 | c1ccc(COc2ccc(CCOc3ccc(CCNc4ncnc5nccnc45)cc3)cc2)cc1 [Compound 140, (2-{4-[2-(4-Benzyloxy-phenyl)-ethoxy]-phenyl}-ethyl)-pteridin-4-yl-amine] | 50 to 79% | 80 to 100% | 0 to 49% | > 80% | 
29 | Cc1cc(CCNc2ncnc3nccnc23)ccc1Oc1ccc(C(F)(F)F)cn1 [Compound 141] | 50 to 79% | 80 to 100% | 0 to 49% | > 80% | 
